Among the data in PubChem BioAssay (NCI) are TGI and GI50 values, retold here.

Structures are written as SMILES.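 The compound was tested at five concentrations on cells cultured in 96-well plates, with a 48-hour exposure period. GI50 = concentration required for 50% inhibition of growth. TGI marks complete inhibition of growth.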 Where a SMILES comes first, the peptide text is derived from it. [ ]: non-standard residue; d: D form. The star is where a group is joined. ξ: configuration not given here. 4Abz = Nc1ccc(C(=O)O)cc1; ξL = CC(C)CC(N)C(=O)O; NHOH = ON*

Test systems include UACC-257 melanoma; ACHN renal; SNB-75 CNS; NCI-H23 lung; PC-3 prostate; SK-MEL-2 melanoma; HOP-92 NSCLC.
Common to all, as to assay: growth of human tumour cells (NCI), 48 h

With `CC(=O)O/N=C1\C=Cc2c(no[n+]2[O-])C1=O`, the TGI in the test on UACC-257 melanoma was found to be 32.2 µM; in the test with ACHN renal, 30.9 µM; in the test on SNB-75 CNS it was 35.5 µM; in the test with NCI-H23 lung it was 35.5 µM; in the test on PC-3 prostate it was 32.3 µM; in the test on SK-MEL-2 melanoma, 32.7 µM.

In the case of `N#CC1=C(N)NC(=S)NC1c1ccc(-c2ccc(-c3nc4ccccc4s3)cc2)o1` (stereo not given), the GI50 is 36.9 µM with UACC-257 melanoma; greater than 50 µM with HOP-92 NSCLC; 28.1 µM with ACHN renal; 33.2 µM in the test on NCI-H23 lung; 31.2 µM in the test with PC-3 prostate; 41 µM with SK-MEL-2 melanoma. For the same molecule, the TGI with UACC-257 melanoma, in the test on HOP-92 NSCLC, with ACHN renal, in the test on NCI-H23 lung, in the test with PC-3 prostate and in the test on SK-MEL-2 melanoma was greater than 50 µM throughout.

Take `CC(C)CC(NC(=O)[C@@H]1CCCN1C(=O)CNC(=O)c1ccc(N)cc1)C(=O)N[C@H](C)C(=O)NO` (stereo not given in full) (H-[4Abz]GP[ξL][dA]-{NHOH}): the GI50 in the test on UACC-257 melanoma, with ACHN renal, with SNB-75 CNS, in the test with NCI-H23 lung, in the test with PC-3 prostate and in the test on SK-MEL-2 melanoma was greater than 100 µM in each case. Also, the TGI with UACC-257 melanoma, with ACHN renal, in the test on SNB-75 CNS, in the test on NCI-H23 lung, in the test on PC-3 prostate and in the test on SK-MEL-2 melanoma was greater than 100 µM each time.

Turning to `COc1cc(Oc2cnc3cc(N)cc(N)c3n2)cc(OC)c1OC`, the GI50 with UACC-257 melanoma is greater than 100 µM; in the test with ACHN renal, 24.3 µM; in the test on SNB-75 CNS, 19.2 µM; with NCI-H23 lung it was 31.4 µM; in the test on PC-3 prostate, 32.4 µM; in the test on SK-MEL-2 melanoma it was greater than 100 µM. The TGI in the test on UACC-257 melanoma was greater than 100 µM; in the test on ACHN renal, 63.4 µM; in the test with SNB-75 CNS, 72.4 µM; in the test on NCI-H23 lung it was greater than 100 µM; in the test with PC-3 prostate, greater than 100 µM; in the test with SK-MEL-2 melanoma, greater than 100 µM.

For `O=C(CCCCCn1c2ccccc2c2c3c(c4c5ccccc5[nH]c4c21)C(=O)N(O)C3=O)N1CCOCC1`, the GI50 with UACC-257 melanoma was 3.19 µM; with NCI-H23 lung, 2.11 µM; in the test with PC-3 prostate, 2.28 µM; with SK-MEL-2 melanoma, 2.4 µM. Besides, the TGI with UACC-257 melanoma came out at 7.76 µM; with NCI-H23 lung, 5.47 µM; in the test on PC-3 prostate, 6.22 µM; with SK-MEL-2 melanoma, 5.47 µM.

For `COc1cc(OC)cc(-c2n[nH]nc2-c2ccc3c(c2)OCO3)c1`, the GI50 was 18.2 µM in the test on UACC-257 melanoma; 0.122 µM with HOP-92 NSCLC; 0.705 µM in the test with ACHN renal; 0.768 µM with NCI-H23 lung; 0.255 µM in the test on PC-3 prostate; 0.245 µM with SK-MEL-2 melanoma. In addition, the TGI was 70.4 µM in the test with UACC-257 melanoma; 1.59 µM with HOP-92 NSCLC; greater than 100 µM with ACHN renal; greater than 100 µM in the test on NCI-H23 lung; 43.7 µM in the test on PC-3 prostate; 55.7 µM in the test on SK-MEL-2 melanoma.

`NC(=O)NC1=NCCC(=O)N1CCc1c[nH]c2ccccc12`: the TGI in the test with UACC-257 melanoma stood at 34.6 µM; in the test on ACHN renal, 65.1 µM; with SNB-75 CNS, 44.5 µM; in the test with NCI-H23 lung it was 43.4 µM; in the test with PC-3 prostate, 28.3 µM; in the test with SK-MEL-2 melanoma, 29.3 µM.

As to `O=C1c2cc(Br)ccc2-c2c1c1ccccc1c(=O)n2CCCCl`, the GI50 was 17.7 µM in the test with UACC-257 melanoma; 12.7 µM with HOP-92 NSCLC; 9.19 µM in the test on ACHN renal; 13 µM with NCI-H23 lung; 18.3 µM with PC-3 prostate; 76.8 µM with SK-MEL-2 melanoma. Moreover, the TGI in the test with UACC-257 melanoma was 95.7 µM; with HOP-92 NSCLC, 46.2 µM; in the test on ACHN renal it was 30.8 µM; with NCI-H23 lung, 40.9 µM; in the test on PC-3 prostate, greater than 100 µM; in the test with SK-MEL-2 melanoma it was greater than 100 µM.

`Cn1c(=O)c2[nH]c(Nc3ccccc3)nc2n(C)c1=O`: the TGI with UACC-257 melanoma, in the test on HOP-92 NSCLC, with SNB-75 CNS, in the test with NCI-H23 lung and in the test on PC-3 prostate was greater than 10 µM throughout.

Regarding `O=C(/C=C/c1ccccc1O)CC(=O)/C=C/c1ccccc1O`, the TGI is 18.7 µM with UACC-257 melanoma; 53.7 µM in the test on HOP-92 NSCLC; 25.9 µM in the test with ACHN renal; greater than 78.7 µM with SNB-75 CNS; 16.9 µM with NCI-H23 lung; 17 µM with SK-MEL-2 melanoma.

For the molecule `COC(=O)C1=C(O)C(C(=O)OC)[C@@]2(O)[C@@H](C(=O)OC)C(c3ccc(OC(=O)C(Cc4ccccc4)NC(C)=O)cc3)C[C@@H]1[C@@H]2C(=O)OC` (stereo not given in full), the GI50 in the test on UACC-257 melanoma was 13.9 µM; with HOP-92 NSCLC, 21.4 µM; with NCI-H23 lung it was 19.9 µM; with PC-3 prostate, 27.6 µM; in the test with SK-MEL-2 melanoma it was 47.4 µM. Besides, the TGI was 50.5 µM with UACC-257 melanoma; 58.8 µM in the test with HOP-92 NSCLC; 48.1 µM in the test on NCI-H23 lung; 91 µM in the test with PC-3 prostate; greater than 100 µM in the test with SK-MEL-2 melanoma.

`C=CC[n+]1c(/C=C2\Sc3ccccc3N2C)sc(-c2ccccc2)c1-c1ccccc1`: the GI50 was 0.239 µM with UACC-257 melanoma; 0.155 µM in the test with HOP-92 NSCLC; 1.7 µM in the test with ACHN renal; 0.298 µM in the test on SNB-75 CNS; 0.289 µM with NCI-H23 lung; 0.264 µM in the test with PC-3 prostate. Besides, the TGI in the test on UACC-257 melanoma amounted to 0.737 µM; with HOP-92 NSCLC it was 0.571 µM; in the test with ACHN renal, 10.2 µM; in the test on NCI-H23 lung, 10.9 µM; with PC-3 prostate, 1.34 µM.

In the case of `CC(C)n1c2c(c3ccccc3c1=O)C(=O)c1ccccc1-2`, the TGI in the test on UACC-257 melanoma, in the test on HOP-92 NSCLC, in the test with SNB-75 CNS, in the test on NCI-H23 lung, in the test on PC-3 prostate and in the test with SK-MEL-2 melanoma was greater than 100 µM in each case.

Regarding `COc1ccc(-c2ccc(/C=N/n3cnn(CN4CCN(C)CC4)c3=S)o2)c([N+](=O)[O-])c1`, the GI50 in the test on HOP-92 NSCLC was 17.1 µM; with ACHN renal it was 30.1 µM; with SNB-75 CNS it was 68.9 µM; with NCI-H23 lung, 16.8 µM; in the test with PC-3 prostate it was 39.3 µM; in the test on SK-MEL-2 melanoma it was greater than 100 µM. For the same molecule, the TGI with HOP-92 NSCLC is 58.4 µM; in the test with ACHN renal, 70.5 µM; in the test with SNB-75 CNS, greater than 100 µM; with NCI-H23 lung, 54.6 µM; in the test on PC-3 prostate it was greater than 100 µM; in the test with SK-MEL-2 melanoma, greater than 100 µM.
